Test results: patent US12655139B2, “Isoxazolidines as RIPK1 inhibitors and use thereof” (SANOFI, priority 2020, dated 2026)
Like-named read-outs stand apart in the source and are kept apart here.

Legend:
[1] = target: T1, hRIPK1 (aa 1-375) fusion protein (Homo sapiens, UniProt Q13546); assay: ADP-Glo kinase assay, RIPK1 autophosphorylation; format: biochemical; details: Comparator table 5
T1 construct: hRIPK1 (aa 1-375) fusion protein
T1 sequence (Q13546 1-375): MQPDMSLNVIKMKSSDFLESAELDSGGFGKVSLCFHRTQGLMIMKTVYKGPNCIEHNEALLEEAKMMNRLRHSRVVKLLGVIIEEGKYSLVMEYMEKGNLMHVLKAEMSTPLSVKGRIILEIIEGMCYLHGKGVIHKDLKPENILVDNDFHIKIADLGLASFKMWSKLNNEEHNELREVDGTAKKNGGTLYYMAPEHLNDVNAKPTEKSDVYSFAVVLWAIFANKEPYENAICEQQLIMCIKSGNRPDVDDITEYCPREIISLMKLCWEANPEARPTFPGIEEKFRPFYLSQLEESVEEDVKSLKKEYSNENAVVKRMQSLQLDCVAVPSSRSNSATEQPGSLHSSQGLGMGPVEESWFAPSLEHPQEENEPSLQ

[2] = tested on: U937 cells; assay: Cellular assay in U937 cells on cell death (necroptosis), TNFα/zVAD.fmk; format: cell-based; details: Homo sapiens, U-937, Comparator table 5; read-out: U937 IC50 (uM) Mean
Summary of the method: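 U937 cells with 100 ng/ml TNFα plus 50 μM zVAD.fmk (pre-addition suspension levels) received 10 compound concentrations (10 μM–0.26 nM or 1 μM–0.07 nM) for 18–24 h at 37 °C. Live cells were read by MTS formazan absorbance at 490 nm after 4 h. % inhibition is relative to the maximal value without TNFα/zVAD.fmk.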

[3] = Pharmacokinetic studies in mice, oral application; format: in vivo; details: male, C57BL/6, brain / plasma, mouse
Procedure: Pharmacokinetic Studies in Mice
A suspension of the respective test articles (30 mg/kg, 10 ml/kg, 3 mg/ml) was prepared in 0.6% methyl cellulose (MC) by thorough mixing of the fine solid with the freshly made and filtered MC solution and administered to 24 non-fasted male C57BL/6 mice (20-25 g) by gavage. Terminal blood sampling (with the addition of K2-EDTA) was performed at 0.25, 0.5, 1, 2, 4, 6, 8 and 24 h post admin. Plasma was generated by centrifugation and deep-frozen (−20° C.). In addition, after 2 h, brain and liver were removed from the respective 3 mice. Additional plasma was collected from terminal blood. The organs were pooled, homogenized and the homogenate extracted with an acetonitrile-water mixture prior to measurement by HPLC-MS/MS. The brain/plasma ratio was determined at 2 h by dividing the brain concentration at 2 h through the respective value for the plasma concentration at 2 h.
Ex. 004: 21 mice were used in the study, without the 6 h sampling time. The same study design was applied.
A suspension of the respective test articles (30 mg/kg, 10 ml/kg, 3 mg/ml) was prepared in freshly prepared and filtered 0.6% methyl cellulose solution by wet-milling using Retsch MM 301 mixer mill (10 min, room temperature) and administered to 6 non-fasted male C57BL/6 mice (20-25 g) by gavage. Serial sampling of blood (with the addition of K3-EDTA) was performed at 0.25, 0.5, 1, 2, 4, 6, 8 and 24 h post admin. The blood samples were diluted (10 μl blood were added to a mixture of 90 μl 25% acetonitrile in water) and deep-frozen (−20° C.). After 2 h, 3 of the 6 animals were sacrificed and brain and liver taken off. Additional plasma was prepared from terminal blood. The organs were homogenized and the homogenate extracted with an acetonitrile-water mixture prior to measurement by HPLC-MS/MS. The brain/plasma ratio was determined at 2 h by dividing the brain concentration at 2 h through the respective value for the plasma concentration at 2 h.

[4] = monkeys, doses ≥100 mg/kg; cited from earlier work
[5] = tested on: U937 cells; details: Comparator table 5; data from P.A. Harris et al. J Med Chem 2019, 62, 5096; cited from earlier work
[6] = Pharmacokinetic studies in mice, intravenous application with non-serial sampling; format: in vivo
Procedure: Intravenous Application with Non-Serial Sampling Compound K
A solution of the respective test articles (3 mg/kg, 5 mL/kg, 0.6 mg/mL) was prepared by dissolving the solids in 7.5% N-Methyl pyrrolidon followed by addition of 60% PEG200 and 32.5% water for injection. Intravenous administration to 24 (3×8, groups per time) non-fasted male C57BL/6 mice (20-25 g) followed immediately after preparation. Terminal blood sampling (with the addition of K2-EDTA) was performed at 0.083, 0.25, 0.5, 1, 2, 4, 8 and 24 h post admin. Plasma was generated by centrifugation and deep-frozen (−20° C.). In addition, brain and liver were removed from all animals. The organs were pooled per time group, homogenized and the homogenate extracted with an acetonitrile-water mixture prior to measurement by HPLC-MS/MS. The brain/plasma ratio was determined by dividing the brain concentration through the respective value for the plasma concentration at the same sampling time.

[7] = Intravenous application to cynomolgus monkeys, side effects and histopathology; format: in vivo, cynomolgus monkey; details: 1 mg/kg, i.v.
[8] = 2 h, oral 30 mg/kg, read-out: Mouse PK brain/blood ratio

| SMILES | IC50 [1] [nM] | IC50 [2] [µM] | Kp at 2 h [3, 8] | other results |
| --- | --- | --- | --- | --- |
| N#Cc1cc(N2CCC(C(=O)N3OCC[C@H]3c3cc(F)cc(F)c3)CC2)ncn1 [A, reference compound] | 12 | 0.003 | 0.82 |  |
| NC(=O)c1cc(N2CCC(C(=O)N3OCC[C@H]3c3cc(F)cc(F)c3)CC2)ncn1 [D, reference compound] | 10 | 0.004 | 1.1 |  |
| N#Cc1cc(N2CCC(C(=O)N3N=CC[C@H]3c3cc(F)cc(F)c3)CC2)ncn1 [G, reference compound] |  | 0.002 | 1.5 |  |
| CN1C(=O)[C@@H](NC(=O)c2nnc(Cc3ccccc3)[nH]2)COc2ccccc21 [GSK2982772] |  |  |  | central side effects [4]: irregular gait and uncoordinated movement |
| CC(C)(C)C(=O)N1N=CC[C@H]1c1cc(F)cc(F)c1 [H] |  |  |  | IC50 [5]: 0.006 µM |
| COc1cc(N2CCC(C(=O)N3OCC[C@H]3c3cc(F)cc(F)c3)CC2)ncn1 [K, reference compound] | 18 | 0.01 |  | Mouse PK brain/blood ratio ([6]; 15 min, i.v. 3 mg/kg): 2.1 (15 min i.v. 3 mg/kg) |
| COc1cc(N2CCC(C(=O)N3OCC[C@H]3c3cc(F)cc(F)c3)CC2)ncn1 [comparator compound K, [1-(6-Methoxypyrimidin-4-yl)-4-piperidyl]-[(3S)-3-(3,5-difluorophenyl)isoxazolidin-2-yl]methanone] |  |  |  | Kp at 2 h ([3]; 2 h after oral application of 30 mg/kg, read-out: brain/plasma ratio): 1.6; Kp at 15 min ([6]; male, C57BL/6, brain / plasma, iv, mouse, 15 min after i.v. application of 3 mg/kg, read-out: brain/blood ratio): 2.1; concentration at 15 min ([6]; male, C57BL/6, brain, iv, mouse, 15 min after i.v. application of 3 mg/kg, read-out: brain levels): 1580 ng/mL; histopathological examination [7]: bilateral and symmetrical lesions of brain necrosis; side effects [7]: severe side effects |
